Where a name gives a salt, the structure may show the parent alone.
Experiments:
Assay in all cases: calcium imaging (Fluo4-AM, FLIPR) in transfected cells
Type in all cases: cell-based
Conditions in all cases: agonist; HEK 293T-Galpha16gust44 cells; 2.5 mM probenecid at dye loading; lowest activating concentration, no EC50
[1] = biological target: T1, ggTas2r7 (Gallus gallus, UniProt Q2AB81)
T1 construct: gene TAS2R7; cDNA in pcDNA5FRT, transiently expressed in HEK 293T-Galpha16gust44 cells
T1 sequence (Q2AB81 1-321): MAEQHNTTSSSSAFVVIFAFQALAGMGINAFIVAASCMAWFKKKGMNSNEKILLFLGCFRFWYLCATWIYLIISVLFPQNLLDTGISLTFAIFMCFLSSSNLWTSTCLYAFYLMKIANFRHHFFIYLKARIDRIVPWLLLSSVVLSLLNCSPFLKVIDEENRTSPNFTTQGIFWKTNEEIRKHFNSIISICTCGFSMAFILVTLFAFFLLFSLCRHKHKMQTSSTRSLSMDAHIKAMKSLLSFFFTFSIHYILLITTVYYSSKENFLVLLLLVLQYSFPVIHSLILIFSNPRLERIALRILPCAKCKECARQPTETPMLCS

[2] = biological target: T2, ggTas2r2 (Gallus gallus, UniProt A0A1D5PXM6)
T2 construct: gene LOC101747503; cDNA in pcDNA5FRT, transiently expressed in HEK 293T-Galpha16gust44 cells
T2 sequence (A0A1D5PXM6 1-311): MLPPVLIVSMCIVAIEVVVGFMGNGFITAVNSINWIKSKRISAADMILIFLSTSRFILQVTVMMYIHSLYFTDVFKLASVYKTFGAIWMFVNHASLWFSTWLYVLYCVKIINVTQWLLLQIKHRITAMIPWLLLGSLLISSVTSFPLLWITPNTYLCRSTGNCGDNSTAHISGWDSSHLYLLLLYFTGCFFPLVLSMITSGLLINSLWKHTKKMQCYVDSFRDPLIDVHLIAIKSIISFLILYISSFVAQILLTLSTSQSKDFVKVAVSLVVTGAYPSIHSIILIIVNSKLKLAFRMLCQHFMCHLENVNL

[3] = biological target: T3, ggTas2r1 (Gallus gallus, UniProt Q2AB83)
T3 construct: gene TAS2R40; cDNA in pcDNA5FRT, transiently expressed in HEK 293T-Galpha16gust44 cells
T3 sequence (Q2AB83 1-311): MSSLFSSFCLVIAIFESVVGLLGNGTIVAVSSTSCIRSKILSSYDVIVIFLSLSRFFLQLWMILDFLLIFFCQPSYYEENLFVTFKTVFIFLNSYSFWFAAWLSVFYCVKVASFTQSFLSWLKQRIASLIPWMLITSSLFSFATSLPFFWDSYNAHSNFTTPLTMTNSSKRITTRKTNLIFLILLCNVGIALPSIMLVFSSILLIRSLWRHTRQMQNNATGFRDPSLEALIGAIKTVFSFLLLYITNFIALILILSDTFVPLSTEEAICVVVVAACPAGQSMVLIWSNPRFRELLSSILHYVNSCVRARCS

SMILES | Threshold Concentrations (mM) / In-Vitro [1] [mM] | Threshold Concentrations (mM) / In-Vitro [2] [mM] | Threshold Concentrations (mM) / In-Vitro [3] [mM]
Oc1cc(O)c2c(c1)O[C@H](c1ccc(O)c(O)c1)[C@@H](O)C2 [(+)-catechin] | 0.3 |  | 
C=C[C@H]1CN2CC[C@H]1C[C@H]2[C@H](O)c1ccnc2ccc(OC)cc12 [quinine hydrochloride] | 0.01 | 0.01 | 0.01

Reference: PMC6154005, “From Cell to Beak: In-Vitro and In-Vivo Characterization of Chicken Bitter Taste Thresholds” (Molecules : A Journal of Synthetic Chemistry and Natural …, 2017)
